Patent US8563614B2, “Use of treprostinil to treat neuropathic diabetic foot ulcers” (United Therapeutics Corporation, priority 2004, dated 2013)

Legend:
[1] = tested on: patients with PAD, diabetes and inoperable ischemic foot ulcers; experiment: open-label study of safety and efficacy in patients with PAD, diabetes and inoperable ischemic foot ulcers; format: in vivo
Method: The purpose of this open-label study is to evaluate the safety and efficacy of treprostinil sodium, a stable prostacyclin analogue, in ten patients with PAD, diabetes and inoperable ischemic foot ulcers.
Treprostinil sodium was administered as a continuous subcutaneous infusion beginning at 2.5 ng/Kg/Min and titrated to highest tolerated dose for 12 weeks. Patients were monitored for adverse events, wound healing, skin perfusion pressure and ischemic rest pain.

[2] = tested on: diabetics with non-healing wounds in critically ischemic lower extremities; experiment: case-controlled trial in diabetic patients with recalcitrant lower extremity wounds: peri-wound TcPO2 and laser Doppler; format: in vivo, human
Method: A case-controlled trial examining the effects of treprostinil sodium (Remodulin®), by continuous subcutaneous infusion, was performed in diabetic patients with recalcitrant lower extremity wounds. The known vasodilator and platelet-aggregation inhibitor properties of treprostinil sodium warranted its evaluation as an adjuvant to wound healing in ischemic extremities. The primary endpoints were wound healing and limb salvage. Amongst the secondary endpoints were resting peri-wound transcutaneous oximetry (TcPO2) and laser Doppler analysis (LD) and the response of TcPO2 and LD to an oxygen challenge at ambient or elevated pressure. If treprostinil sodium reduces inflow resistance distal to the pre-capillary sphincter, the ΔpO2 between the hypoxic wound center and the inflow blood should increase both in magnitude and in the slope of that difference. This would be the physiologic basis for the augmentation of the hypoxic signal.
The seven enrolled patients were diabetics with non-healing wounds present (>3 months) in critically ischemic lower extremities (Fontaine Stage III-IV or Rutherford Stage 4, 5 or 6). The treprostinil sodium (Remodulin®) was given by continuous subcutaneous infusion for the study period of 6 weeks. Candidacy for hyperbaric oxygen treatment was an exclusion criterion (patient refusal, logistical constraints or a recently completed HBO2 course). […]

[3] = tested on: diabetic neuropathy patients having at least one ulcer present on a foot; experiment: administration to humans with diabetic neuropathy suffering from foot ulcers; format: in vivo; details: continuous subcutaneous infusion, 2.5 ng/kg/min raised weekly to target dose, 12 weeks
Method: Diabetic neuropathy patients having at least one ulcer (i.e., small sore or area of tissue gangrene) present on a foot are dosed with increasing amounts of Treprostinil over 12 weeks. The medication is delivered by a small pump that is connected to a catheter placed under the skin. In this manner, increasing dosages of Treprostinil are administered to patients by chronic continuous subcutaneous infusion.
Specifically, a 1.0 mg/mL formulation of Treprostinil sodium (REMODULIN®) is administered subcutaneously using a standard micro-infusion, positive-pressure infusion pump designed for subcutaneous drug delivery (Mini-Med). Patients receive an initial dose of 2.5 ng/kg/min of study drug. If, in a given patient, a dose of 2.5 ng/kg/min is not tolerated (e.g., persistent headache, nausea, emesis, restlessness, anxiety or severe pain at infusion site that cannot be adequately managed by medication or topical treatment), the dose is reduced to 1.25 ng/kg/min. Patients are maintained at 2.5 ng/kg/min (or 1.25 ng/kg/min if 2.5 ng/kg/min is not tolerated) during Week 1. After that, the dose is raised by 2.50 ng/kg/min each week until not tolerated or once a target dose is reached.
Dosing is increased weekly unless not tolerated by the patient. […] One example of a target dose is 15 ng/kg/min. The minimum dose is usually not less than 0.625 ng/kg/min. […]

[4] = tested on: human alveolar macrophages; details: Raychaudhuri et al. 2002; cited from earlier work
[5] = tested on: human pulmonary arterial smooth muscle cells; details: Clapp et al. 2002; cited from earlier work
[6] = tested on: patients with class III or class IV heart failure; details: Patterson et al. 1995; cited from earlier work
[7] = of seven patients who completed the trial to-date, 12 weeks

Structure (SMILES)	effect on ischemic rest pain, skin perfusion, and wound healing ([1]; conclusion of the study)	increase in LD signals (thermal stimulation response) ([2]; all patients with exception of one, on drug against before infusion)	patients who demonstrated healing in wounds ([2]; seven enrolled patients, continuous subcutaneous infusion for 6 weeks, wounds with mean healing arrest of 10.5 months)	serious adverse events attributed to treprostinil ([1]; continuous subcutaneous infusion from 2.5 ng/Kg/Min titrated to highest tolerated dose, 12 weeks, seven patients completed)	drug related side effect reported ([1]; continuous subcutaneous infusion, 12 weeks, seven patients completed)	patients who experienced complete healing [1, 7]	patients who experienced complete resolution of rest pain [1, 7]	patients who experienced partial healing [1, 7]	foot ulcers present before treatment [3]	new foot ulcers associated with diabetic neuropathy [3]	inflammatory cytokine (tumor necrosis factor-α, interleukin-1β, interleukin-6, GM-CSF) secretion and gene expression [4]	proliferation of human pulmonary arterial smooth muscle cells [5]	vasodilator effects [6]
CCCCC[C@H](O)CC[C@@H]1[C@H]2Cc3cccc(OCC(=O)O)c3C[C@H]2C[C@H]1O [Treprostinil sodium]	positive effect	236%	All patients but one	–	–	–	–	–	–	–	–	–	–
CCCCC[C@H](O)CC[C@@H]1[C@H]2Cc3cccc(OCC(=O)O)c3C[C@H]2C[C@H]1O [Treprostinil, 9-deoxy-2′,9-α-methano-3-oxa-4,5,6-trinor-3,7-(1′,3′-interphenylene)-13,14-dihydro-prostaglandin F1]	–	–	–	No serious adverse events	mild to moderate infusion site pain	Two	Five	Two	reduction in the number, size and severity	fewer new foot ulcers	inhibits	inhibits proliferation	vasodilator effects
